Activity calls are given as the source filed them.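 The calls were made as follows: active = mean half-maximal activating concentration from the dose-response fit at or below a set limit; inactive = the rest.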

This assay deals with CHO-XBP1 luciferase reporter, IRE1-XBP1 UPR activation. Put plainly: activators of IRE1-XBP1 UPR arm, dose response, counter-screen for apoptotic UPR arm activators, CHO-XBP1 cells, luminescence (AID 489040).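 Also: reporter read after six hours of compound exposure.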
Take `Oc1ccc(-c2csc(Nc3cccc4ccccc34)n2)cc1O`: the EC50 is > 80 µM (inactive). The value for `CS(=O)(=O)Oc1ccc2c(c1)O/C(=C\C=C\c1ccccc1)C2=O` was > 80 µM (inactive); that for `O=C(Nc1ccc(-c2nc3cc(NC(=O)c4cccs4)ccc3o2)cc1)c1cccs1` was 6.4 µM. The figure for `CC(C)c1ccc(N2C(=O)NC(=O)/C(=C\C=C\c3ccco3)C2=O)cc1` is > 80 µM (inactive); for `O=C(Nc1nccs1)c1cccc(N2C(=O)c3cccc4c([N+](=O)[O-])ccc(c34)C2=O)c1` it is > 80 µM (inactive); for `COc1ccc(OC)c(/C=C/C(=O)N2C(=O)c3cccc(N)c3C2=O)c1` it is > 80 µM (inactive). The value for `Oc1cc(-c2ccncc2)cc2cccnc12` was > 80 µM (inactive); that for `Cc1ccc(C[n+]2c(-c3ccc(C)cc3)cc(-c3ccc(C)cc3)cc2-c2ccc(C)cc2)cc1` was > 80 µM (inactive).

Consider `COC(=O)[C@@H]1[C@@H](C#N)C2(c3ccccc3-c3ccccc32)N(c2ccc(Cl)cc2)N1C#N`, for which the EC50 was > 80 µM (inactive). As to `O=C(NC1CCCC1)C(c1ccc(F)cc1)N(Cc1ccc(F)cc1)C(=O)CCl` (stereo unspecified), the EC50 is > 80 µM (inactive).

Regarding `O=[N+]([O-])c1ccc(Sc2nnnn2-c2ccccc2)nc1`, the EC50 is > 80 µM (inactive).

On to `COc1ccc(/C=N/Nc2cc(C)nc(-n3nc(C)cc3C)n2)cc1`, for which the EC50 is > 80 µM (inactive). The figure for `COC(=O)c1cc(=O)n(Cc2ccc3c(c2)OCO3)c(=Nc2ccc(F)c(Cl)c2)s1` is > 80 µM (inactive); for `Oc1ccc(CN2CCc3ccccc3C2)c2cccnc12` it is > 80 µM (inactive); for `CNC[C@@H](Cc1ccccc1)NC[C@@H](CC1CCCCC1)NCCCc1ccccc1` it is > 80 µM (inactive). Turning to `Oc1ccc(-c2nc(-c3ccc(O)c(O)c3)cs2)cc1`, the EC50 is > 80 µM (inactive).

`O=c1nc(Nc2cccc(Cl)c2)oc2cc(Cl)oc(=O)c12`: the EC50 was > 80 µM (inactive). For `O=[N+]([O-])c1ccc(Sc2cccc3cccnc23)c([N+](=O)[O-])c1`, the EC50 was > 80 µM (inactive). The value for `Cc1ccc(N2C(=O)NC(=O)/C(=C/C=C/c3ccco3)C2=O)cc1` was > 80 µM (inactive); that for `COCc1ccc(O)c2ncccc12` was “inactive”. The value for `COc1ccc(CCNC(=O)c2coc(=O)c(Br)c2)cc1` was > 80 µM (inactive); that for `O=C(NCc1cccnc1)/C(=C/c1ccc(-c2cccc(Cl)c2)o1)S(=O)(=O)c1ccccc1` was > 80 µM (inactive); that for `COc1cc([C@H]2c3[nH]c4ccccc4c3C[C@H]3C(=O)N4[C@@H](c5cc(OC)c(OC)c(OC)c5)c5[nH]c6ccccc6c5C[C@H]4C(=O)N23)cc(OC)c1OC` was 14.1 µM. The figure for `COc1ccccc1N=Cc1c(O)c2ccccc2oc1=O` is 8.05 µM; for `CC(C)(C)C(=O)NC(=S)NNC(=O)c1ccc(-c2ccccc2)cc1` it is 9.6 µM. Consider `COc1ccc(OC)c(Nc2nc(-c3ccc(O)c(O)c3)cs2)c1`, for which the EC50 is > 80 µM (inactive). The figure for `Cc1nc([N+](=O)[O-])c(Br)n1CC(=O)c1ccc2ccccc2c1` is > 80 µM (inactive).

As for `O=C(N/N=C/c1ccc(O)c(O)c1)NC12CC3CC(CC(C3)C1)C2`, the EC50 was 14.2 µM. The value for `O=C(COc1ccc2ccccc2c1)N1CCN(Cc2c[nH]c3ccccc23)CC1` was > 80 µM (inactive); that for `COc1cc(C(=O)Nc2nc(-c3ccc(Cl)cc3)c(C)s2)ccc1OCC(=O)Nc1ccc(F)cc1` was > 80 µM (inactive); that for `CN(C)CC(CCC(CN(C)C)C(O)(c1ccccc1)c1ccccc1)C(O)(c1ccccc1)c1ccccc1` (stereo unspecified) was > 80 µM (inactive). On to `CCOC(=O)N1CCN(Cc2cc(Cl)c3cccnc3c2O)CC1`, for which the EC50 is > 80 µM (inactive). With `N#C/C(=C\c1ccc(OCc2ccccc2)cc1)C(=O)Nc1nc2c(s1)CCN(Cc1ccccc1)C2`, the EC50 was > 80 µM (inactive). The value for `O=C(Oc1c(CN2CCOCC2)cc(Cl)c2cccnc12)c1ccccc1F` was > 80 µM (inactive); that for `COCc1cc(C)nc(OCC(=O)N/N=C/c2ccc(-c3cc([N+](=O)[O-])ccc3Cl)o2)c1C#N` was 13.2 µM. The figure for `Cc1cc(C(=O)c2ccc(Cl)cc2)c(NC(=O)CCl)s1` is > 80 µM (inactive); for `CCOC(=O)c1ccc(N=C2C(=S)N(c3ccc(C(=O)OCC)cc3)C(=N)N2/N=C/c2ccccc2)cc1` it is > 80 µM (inactive); for `O=C(C#Cc1ccccc1)c1cccc([N+](=O)[O-])c1` it is > 80 µM (inactive). The figure for `COc1cc(/C=C/[N+](=O)[O-])ccc1O` is > 80 µM (inactive); for `Cc1ccc(CS(=O)(=O)c2ncc(Cl)c(C(=O)Nc3nnc(C(C)C)s3)n2)cc1` it is > 80 µM (inactive); for `O=C1C(Cl)=C(NC(=O)c2ccccc2)C(=O)C(Cl)=C1NC(=O)c1ccccc1` it is > 80 µM (inactive). `O=C(CSc1cccc2cccnc12)N/N=C/c1cccnc1`: the EC50 is > 80 µM (inactive). The value for `CCOC(=O)c1c(NC(C)=O)sc2c1CCC(C=O)=C2Sc1ccccc1` was > 80 µM (inactive). The value for `Cc1cc(C)n(-c2nc(NC(C)(C)C)nc(NC(C)(C)C)n2)n1` was > 80 µM (inactive); that for `CCCCC(CC)CN=C(N)NC(N)=NCCCCCCN=C(N)NC(N)=NCC(CC)CCCC` (stereo unspecified) was > 80 µM (inactive). The figure for `O=C(/C=C/c1ccc(O)c(O)c1)c1ccccc1O` is > 80 µM (inactive). On to `O=C(Nc1nc(-c2ccccn2)cs1)c1ccc(Br)s1`, for which the EC50 entry was “inactive”.

In the case of `CCSC1(SCC)N=C(N)C2(C#N)C(c3ccc(OC)c(OC)c3OC)C12C#N` (stereo unspecified), the EC50 was > 80 µM (inactive). The figure for `O=C(CCN1C(=O)/C(=C\c2ccccc2F)SC1=S)N1CCCCC1` is > 80 µM (inactive); for `COc1cc(CN2CCN(c3cc(C)ccc3C)CC2)ccc1O` it is > 80 µM (inactive).

In the case of `C=CCN=c1scc(-c2ccco2)n1/N=C/c1ccc(O)c(O)c1O`, the EC50 is > 80 µM (inactive). Consider `Cn1c(=O)c2c(SCC(=O)Nc3ccccc3F)nc(-c3ccccc3F)nc2n(C)c1=O`, for which the EC50 was 10.9 µM. As for `COc1cc(/C=C(/C#N)c2nc3ccccc3[nH]2)ccc1OCC(=O)Nc1ccccc1C(C)C`, the EC50 is > 80 µM (inactive). The value for `OCCNc1nc(Nc2ccc(Cl)c(Cl)c2)nc2ccccc12` was > 80 µM (inactive); that for `O=C1NC(=O)N(Cc2ccccc2)C(=O)/C1=C\C=C\c1ccco1` was > 80 µM (inactive). Take `CCOC(=O)C(=Cc1ccc(OCc2ccc([N+](=O)[O-])cc2)c(OC)c1)C(=O)OCC`: the EC50 was > 80 µM (inactive). The value for `CSc1nnc(NC(=O)c2nc(S(=O)(=O)Cc3ccccc3)ncc2Cl)s1` was > 80 µM (inactive); that for `O=C(Nc1cccc(S(=O)(=O)N2CCCCC2)c1)c1ccc([N+](=O)[O-])o1` was > 80 µM (inactive).

On to `Nc1nnnn1/N=C/C(Br)=C/c1ccccc1`, for which the EC50 was > 80 µM (inactive). The figure for `CCCCn1c(/C=N/Nc2nc3ccccc3[nH]2)nc2ccccc21` is > 80 µM (inactive); for `CCCCCCCCCn1c2c(c(=N)c3c1CCC3)CCC2` it is > 80 µM (inactive); for `COc1ccc(C(=O)NCC(=O)N/N=C/c2ccc([N+](=O)[O-])o2)cc1OC` it is > 80 µM (inactive). The figure for `Cc1cc(C(=O)CCl)c(C)n1CCc1ccc(Cl)cc1` is > 80 µM (inactive). The figure for `Oc1ccc(/C=N/Nc2ccc(C(F)(F)F)cn2)cc1O` is > 80 µM (inactive); for `Cc1ccc(Sc2ccc(/C=C3/C(=O)NN(c4ccccc4)C3=O)o2)cc1` it is > 80 µM (inactive); for `Cc1ccc(C)c(C(=O)Cn2ncc(Cl)c(Cl)c2=O)c1` it is > 80 µM (inactive). In the case of `CCOC(=O)c1c(C)oc2c1c(C(c1cccnc1)N1CCCCC1)c(O)c1ccccc12` (stereo unspecified), the EC50 was > 80 µM (inactive). The value for `O=c1c2ccccc2nc(/C=C/c2ccc([N+](=O)[O-])o2)n1-c1ccc(O)cc1` was > 80 µM (inactive). Take `COc1ccc(C2c3ccc4ccccc4c3Oc3ncn(CCCN(C)C)c(=N)c32)cc1` (stereo unspecified): the EC50 was > 80 µM (inactive). The figure for `O=C(/C=C/c1ccc(O)c(O)c1)OCCc1ccccc1` is > 80 µM (inactive). On to `O=C1/C(=C/c2ccc(N3CCOCC3)o2)SC(=Nc2ccccc2)N1CCc1c[nH]c2ccccc12`, for which the EC50 was > 80 µM (inactive). The figure for `O=C(N/N=C/c1ccccn1)c1cc(-c2ccc(Cl)cc2)nc2ccccc12` is > 80 µM (inactive).

Consider `COc1ccccc1NC(=O)c1cnc(SCC(=O)NCC2CCCO2)n(C)c1=O` (stereo unspecified), for which the EC50 is > 80 µM (inactive). The value for `Cc1cnc(NC(=O)c2cc(S(=O)(=O)N(C)C)ccc2N2CCCC2)s1` was 3.28 µM. For the compound `CN=c1scc(-c2ccco2)n1/N=C/c1ccc(O)c(O)c1`, the EC50 is > 80 µM (inactive). The figure for `Oc1c(N=Nc2ccccn2)ccc2ccccc12` is > 80 µM (inactive); for `Oc1c(Cl)cc(CN2CCOCC2)c2cccnc12` it is > 80 µM (inactive). The figure for `CCOC(=O)C1=C(CCl)NC(=O)NC1c1ccc2c(c1)OCO2` (stereo unspecified) is > 80 µM (inactive). For the compound `O=C(CSc1ccc2ccccc2c1)NCCc1ccc(O)c(O)c1`, the EC50 was > 80 µM (inactive). The value for `O=CC1=C(c2ccccc2)Oc2ccccc2O1` was > 80 µM (inactive); that for `O=C(Nc1ccc(N2CCOCC2)cc1)c1ccc([N+](=O)[O-])o1` was > 80 µM (inactive).

As for `O=C(c1cccs1)N(C(=O)c1cccs1)c1ccc(Br)cn1`, the EC50 was 17.9 µM. The value for `CC(C)c1ccc(N2C(=O)CC(Sc3nc4ccccc4o3)C2=O)cc1` (stereo unspecified) was > 80 µM (inactive); that for `Oc1[nH]c2ccccc2c1N=NC(=S)N1CCOCC1` was “inactive”; that for `CCCn1c(CC)nc([N+](=O)[O-])c1S(=O)(=O)c1ccccc1` was > 80 µM (inactive). As for `CCc1cccc(CC)c1NC(=O)/C(C#N)=C/c1ccccc1C(F)(F)F`, the EC50 is > 80 µM (inactive).

For orientation: EC50 means the concentration giving half of the maximal effect.
